# Assay results as given in patent publication US7375222B2, “2,4,6-Triamino-1,3,5-triazine derivative” (Astellas Pharma Inc., priority 2002, dated 2008).
# Where a name gives a salt, the structure may show the parent alone.
# Columns and labels:
# BEC 1 potassium channel = molecular target: T1, BEC 1 potassium channel (Homo sapiens, UniProt Q9ULD8); assay: BEC 1 inhibitory activity using released amount of 86Rb ions from BEC 1-expressing cells; assay type: cell-based; settings: 86Rb ion release, BEC 1-stably expressing CHO (dhfr-deficient) cell, 100 mM KCl stimulation; read-out: BEC1 IC50
# T1 construct: expressed in transfected cells
# T1 sequence (Q9ULD8 1-1083): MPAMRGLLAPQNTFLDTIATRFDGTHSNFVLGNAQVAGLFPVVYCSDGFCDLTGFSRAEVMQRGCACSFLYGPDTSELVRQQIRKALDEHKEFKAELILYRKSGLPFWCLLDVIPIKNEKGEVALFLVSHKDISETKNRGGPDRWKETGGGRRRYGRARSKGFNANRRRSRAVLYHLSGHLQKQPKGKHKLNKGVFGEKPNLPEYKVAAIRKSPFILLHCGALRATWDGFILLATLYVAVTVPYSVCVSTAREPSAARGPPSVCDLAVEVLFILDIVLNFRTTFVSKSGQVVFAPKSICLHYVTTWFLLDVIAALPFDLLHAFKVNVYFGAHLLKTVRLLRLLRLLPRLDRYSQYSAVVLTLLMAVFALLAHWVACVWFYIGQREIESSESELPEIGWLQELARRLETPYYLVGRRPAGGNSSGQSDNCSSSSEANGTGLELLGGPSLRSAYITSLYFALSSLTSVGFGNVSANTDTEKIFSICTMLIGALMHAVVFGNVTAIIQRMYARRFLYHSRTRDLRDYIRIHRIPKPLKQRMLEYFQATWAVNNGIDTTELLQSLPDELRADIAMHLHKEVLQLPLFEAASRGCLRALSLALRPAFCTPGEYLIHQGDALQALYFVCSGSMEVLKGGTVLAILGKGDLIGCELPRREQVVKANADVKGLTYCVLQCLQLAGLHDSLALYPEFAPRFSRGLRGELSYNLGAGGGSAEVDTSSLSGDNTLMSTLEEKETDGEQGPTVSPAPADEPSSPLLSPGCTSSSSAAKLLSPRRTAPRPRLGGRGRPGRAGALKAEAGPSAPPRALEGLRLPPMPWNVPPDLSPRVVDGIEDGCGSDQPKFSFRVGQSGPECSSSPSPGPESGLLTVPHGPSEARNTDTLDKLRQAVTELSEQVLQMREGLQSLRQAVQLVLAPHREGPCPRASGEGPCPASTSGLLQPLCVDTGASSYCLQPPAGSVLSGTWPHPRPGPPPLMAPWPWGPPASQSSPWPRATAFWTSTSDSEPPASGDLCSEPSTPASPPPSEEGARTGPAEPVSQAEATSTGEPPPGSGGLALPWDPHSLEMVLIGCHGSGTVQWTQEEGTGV
# Description: In general, the potassium channel can pass Rb^+ ion similar to K^+ ion, so that the channel activity can be measured using release of a radioisotope ^86Rb^+ as a marker. By incubating cells expressing the novel potassium channel protein together with ^86RbCl (e.g., 18 hr, 37° C.), ^86Rb^+ can be incorporated into the cells. The cells are washed with a low K^+ concentration physiological saline (e.g., 4.5 mM K^+) and then suspended in the same solution. When a high K^+ concentration solution (e.g., 100 mM in final concentration) is added to the cell suspension, membrane potential of the cell is depolarized and the potassium channel therefore is activated. As a result, the intracellular ^86Rb^+ is released into the extracellular part, thus radioactivity of the extracellular solution can be used as a marker of the channel activity. It is possible to screen a compound and a peptide capable of modifying activity of the BEC 1 potassium channel protein, by comparing the radioactivity released into the extracellular part when the high K^+ concentration solution is added in the presence and absence of each drug to be tested.
# Method for Measuring BEC 1 Inhibitory Activity of Compounds Using Released Amount of ^86Rb ions as the Index
# The channel activity of BEC 1 was measured in accordance with the method described in WO 99/37677, using amount of a radioisotope ^86Rb ion released from a BEC 1-expressing cell as the index. That is, when an ^86Rb ion-incorporated BEC 1-expressing cell was stimulated with 100 mM KCl, the radioactivity released from the cell was used as the channel activity of BEC 1. The ^86Rb ions were incorporated into a BEC 1-stably expressing cell by culturing the cell (3 hours, 37° C.) in the presence of ^86RbCl (0.5 μCi/ml), and the un-incorporated ^86Rb ions were removed by washing three times with HEPES-buffered saline (pH 7.4, 2.5 mM KCl). The cells were incubated with HEPES-buffered saline containing a compound to be tested at room temperature for 15 minutes and then further incubated with 100 mM KCl-containing HEPES-buffered saline (pH 7.4) containing the compound to be tested at room temperature for 5 minutes. The extracellular medium was recovered, and then the remaining cells were lysed with 0.1 N NaOH and recovered.
# The Cerenkov radioactivity of the extracellular medium and cell lysate was respectively measured, and their total was used as the total radioactivity. The released amount of ^86Rb ions was expressed by the percentage of extracellular medium radioactivity based on the total radioactivity. The value obtained in the presence of the compound was used as a test value, and the value obtained in the absence of the compound as a control value and the value obtained when not stimulated with 100 mM KCl as a blank value. Inhibitory action of each compound was expressed by % inhibition, namely (control value−test value)×100/(control value−blank value), or by an IC50 value calculated from the % inhibition. As the test results of typical compounds are shown in the following Tables 2 and 3, it was confirmed that said compounds have the BEC 1 potassium channel inhibitory action.
# In this connection, as the BEC 1-expressing cell, a BEC 1-stably expressing cell prepared in accordance with the method described in WO 99/37677 using a dihydrofolate reductase (dhfr)-deficient strain of a Chinese hamster ovary cell was used.
Structure (SMILES),melting point [°C],IC50 (BEC 1 potassium channel) [nM]
Cc1ccc(Nc2nc(Nc3ccccc3)nc(NC(C)C)n2)cc1 (as salt: HCl) [Ex 47],194 to 195,
CC(C)Nc1nc(Nc2ccccc2)nc(Nc2ccc(C(F)(F)F)cc2)n1 (as salt: HCl) [Ex 49],198 to 200,
CC(CCCC(C)(C)O)Nc1nc(Nc2ccccc2)nc(Nc2ccccc2)n1 (centres unmarked) (as salt: HCl) [Example 742],112 to 113,
Fc1ccc(Nc2nc(NCc3ccnc(F)c3)nc(Nc3ccc(F)cc3)n2)cc1 (as salt: HCl) [Example 743],191 to 192,
Fc1ccc(Nc2nc(NCc3ccnc(F)c3)nc(Nc3ccccc3)n2)cc1 (as salt: HCl) [Example 744],175 to 177,
COCCNc1nc(Nc2ccccc2)nc(Nc2ccc(F)cc2)n1 (as salt: HCl) [Example 771],179 to 181,
OCCNc1nc(Nc2ccccc2)nc(Nc2ccc(F)cc2)n1 (as salt: HCl) [Example 773],209 to 211,
OCCCCNc1nc(Nc2ccccc2)nc(Nc2ccc(F)cc2)n1 (as salt: HCl) [Example 775],185 to 186,
OCCCCCNc1nc(Nc2ccccc2)nc(Nc2ccc(F)cc2)n1 (as salt: HCl) [Example 776],178 to 180,
OCCOCCNc1nc(Nc2ccccc2)nc(Nc2ccc(F)cc2)n1 (as salt: HCl) [Example 777],141 to 142,
C[C@H](CO)Nc1nc(Nc2ccccc2)nc(Nc2ccc(F)cc2)n1 (as salt: HCl) [Example 779],193 to 195,
CN(C)Nc1nc(Nc2ccccc2)nc(Nc2ccc(F)cc2)n1 (as salt: HCl) [Example 791],154 to 156,
Fc1ccc(Nc2nc(NCc3ccnc(F)c3)nc(Nc3ccc(Cl)cc3)n2)cc1 (as salt: HCl) [Example 797],214 to 215,
COCCNc1nc(Nc2ccccc2)nc(Nc2ccc(OC)cc2)n1 (as salt: HCl) [Example 808],169 to 170,
C#CCNc1nc(Nc2ccccc2)nc(Nc2ccccc2)n1 (as salt: HCl) [compound 16],195 to 197,
COCCCNc1nc(Nc2ccccc2)nc(Nc2ccccc2)n1 (as salt: HCl) [compound 18],154 to 155,
CSCCCNc1nc(Nc2ccccc2)nc(Nc2ccccc2)n1 (as salt: HCl) [compound 19],162 to 163,
OCCCNc1nc(Nc2ccccc2)nc(Nc2ccccc2)n1 (as salt: HCl) [compound 21],191 to 192,
OCCOCCNc1nc(Nc2ccccc2)nc(Nc2ccccc2)n1 (as salt: HCl) [compound 23],167 to 169,

Structure (SMILES),melting point [°C],IC50 (BEC 1 potassium channel) [nM]
Fc1ccc(CNc2nc(Nc3ccc(F)cc3)nc(Nc3ccc(F)cc3)n2)cc1 (as salt: HCl) [compound 29],166 to 167,
Fc1ccc(Nc2nc(NCc3ccco3)nc(Nc3ccc(F)cc3)n2)cc1 (as salt: HCl) [compound 30],179 to 180,
Fc1ccc(Nc2nc(NCc3cccs3)nc(Nc3ccc(F)cc3)n2)cc1 (as salt: HCl) [compound 31],180 to 182,
COCCNc1nc(Nc2ccc(F)cc2)nc(Nc2ccc(F)cc2)n1 (as salt: HCl) [compound 35],175 to 176,
OCCCCCNc1nc(Nc2ccc(F)cc2)nc(Nc2ccc(F)cc2)n1 (as salt: HCl) [compound 37],162 to 163,
OCCOCCNc1nc(Nc2ccc(F)cc2)nc(Nc2ccc(F)cc2)n1 (as salt: HCl) [compound 38],151 to 152,
COc1cccc(Nc2nc(Nc3cccc(OC)c3)nc(NC(C)C)n2)c1 (as salt: HCl) [compound 40],180 to 182,
[O-][n+]1ccc(CCNc2nc(Nc3ccccc3)nc(Nc3ccccc3)n2)cc1 (as salt: salt) (hydrate or solvate) [Example 740],161 to 162,
c1ccc(Nc2nc(NCC3CCOCC3)nc(Nc3ccccc3)n2)cc1 (as salt: salt) (hydrate or solvate) [Example 741],191 to 193,
Nc1cc(CNc2nc(Nc3ccccc3)nc(Nc3ccc(F)cc3)n2)ccn1 (as salt: salt) (hydrate or solvate) [Example 747],164 to 199,
Fc1ccc(Nc2nc(NCc3ccco3)nc(Nc3ccccc3)n2)cc1 (hydrate or solvate) [Example 764],144 to 148,
OCCCNc1nc(Nc2ccccc2)nc(Nc2ccc(F)cc2)n1 (hydrate or solvate) [Example 774],188 to 189,
CCN(CC)CCCC(C)Nc1nc(Nc2ccccc2)nc(Nc2ccc(F)cc2)n1 (centres unmarked) (hydrate or solvate) [Example 794],184 to 187,
Nc1cccc(CNc2nc(Nc3ccccc3)nc(Nc3ccc(F)cc3)n2)n1 (hydrate or solvate) [Example 819],164 to 165,
CCCCCNc1nc(Nc2ccccc2)nc(Nc2ccccc2)n1 [compound 14],78 to 81,390
COCCNc1nc(Nc2ccccc2)nc(Nc2ccccc2)n1 [compound 17],128 to 129,290
OCCCCCNc1nc(Nc2ccccc2)nc(Nc2ccccc2)n1 [compound 22],118 to 119,190
"CC(C)Nc1nc(Nc2ccccc2)nc(Nc2ccc(F)cc2)n1.Cl [compound 45, N-(4-fluorophenyl)-N′-isopropyl-N″-phenyl-1,3,5-triazine-2,4,6-triamine hydrochloride]",205 to 206,220
